Assay results from ChEMBL document CHEMBL1146137, “Synthesis and evaluation of febrifugine analogues as potential antimalarial agents” (Bioorg Med Chem Lett, 2006).

How the values were obtained:
[1] = tested on: Plasmodium falciparum; assay: Antimalarial activity against chloroquine-sensitive Plasmodium falciparum D6; assay type: functional, organism-based
[2] = tested on: Plasmodium falciparum; assay: Antimalarial activity against chloroquine-resistant Plasmodium falciparum W2; assay type: functional, organism-based
[3] = tested on: Hepatocyte; assay: Cytotoxicity against rat hepatocytes; assay type: functional, cell-based

Row | SMILES | IC50 [1] [µM] | IC50 [2] [µM] | IC50 [3] [µM]
1 | Cc1ccc2c(=O)n(CC(=O)C[C@H]3NCCC[C@@H]3O)cnc2c1 | 0.002 | 0.0022 | 0.117
2 | CC(C)(C)c1cccc2ncn(CC(=O)C[C@H]3NCCC[C@@H]3O)c(=O)c12 | 0.132 | 0.16 | 70
3 | O=C(C[C@H]1NCCC[C@@H]1O)Cn1cnc2ccc(C(F)(F)F)cc2c1=O | 0.014 | 0.016 | 15
4 | O=C(C[C@H]1NCCC[C@@H]1O)Cn1cnc2ccncc2c1=O | 0.0015 | 0.0018 | 17
5 | O=C(C[C@H]1NCCC[C@@H]1O)Cn1cnc2cccc(C(F)(F)F)c2c1=O | 0.00043 | 0.00041 | 19
6 | COc1cccc2c(=O)n(CC(=O)C[C@H]3NCCC[C@@H]3O)cnc12 | 0.0012 | 0.0013 | 0.016
7 | COc1ccc2c(=O)n(CC(=O)C[C@H]3NCCC[C@@H]3O)cnc2c1 | 0.0014 | 0.0013 | 0.015
8 | O=C(C[C@H]1NCCC[C@@H]1O)Cn1cnc2cccc(F)c2c1=O | 0.0013 | 0.0013 | 19
9 | Cc1cccc2c(=O)n(CC(=O)C[C@H]3NCCC[C@@H]3O)cnc12 | 0.0017 | 0.0019 | 0.14
10 | O=C(C[C@H]1NCCC[C@@H]1O)Cn1cnc2ccc(F)c(F)c2c1=O | 0.00033 | 0.00039 | 17
11 | O=C(C[C@H]1NCCC[C@@H]1O)Cn1cnc2cnccc2c1=O | 0.063 | 0.073 | 19
12 | O=C(C[C@H]1NCCC[C@@H]1O)Cn1cnc2ncccc2c1=O | 0.07 | 0.109 | 22
13 | CC(C)(C)c1ccc2ncn(CC(=O)C[C@H]3NCCC[C@@H]3O)c(=O)c2c1 | 0.165 | 0.188 | 
14 | O=C(C[C@H]1NCCC[C@@H]1O)Cn1cnc2c(F)cccc2c1=O | 0.103 | 0.1 | 16
15 | O=C(C[C@H]1NCCC[C@@H]1O)Cn1cnc2ccc(F)cc2c1=O | 0.0047 | 0.005 | 13
16 | O=C(C[C@H]1NCCC[C@@H]1O)Cn1cnc2cccnc2c1=O | 0.0012 | 0.0013 | 18
17 | CCN(CC)CCCC(C)Nc1ccnc2cc(Cl)ccc12 (stereo unspecified) [CHLOROQUINE] |  |  | 19
18 | O=C(C[C@@H]1NCCC[C@H]1O)Cn1cnc2ccccc2c1=O [FEBRIFUGINE] | 0.0016 | 0.0019 | 0.169
